Columns and labels:
[1] = biological target: T1, Ba/F3-FGFR1-transfected cells (Homo sapiens, UniProt P11362); assay: Ba/F3-FGFR1 (minus IL3) cellular proliferation assay, Alamar Blue; type: cell-based
T1 construct: BAF3-FGFR1 (MIN IL3) pIC50; other: minus IL3
In short: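 Ba/F3-FGFR1 cells, 20000/well, RPMI-1640 + 10% FBS + 2 mM L-Gln; compound in DMSO; 24 h, 37 °C, 5% CO2; Alamar Blue 4 h; RFU ex 540/em 590.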

[2] = biological target: T2, Ba/F3-KDR-transfected cells (Homo sapiens, UniProt P35968); assay: Ba/F3-KDR (minus IL3) cellular proliferation assay, Alamar Blue; type: cell-based
T2 construct: BAF3-KDR (MIN IL3) pIC50; other: minus IL3
T2 sequence (P35968 whole entry, change not shown): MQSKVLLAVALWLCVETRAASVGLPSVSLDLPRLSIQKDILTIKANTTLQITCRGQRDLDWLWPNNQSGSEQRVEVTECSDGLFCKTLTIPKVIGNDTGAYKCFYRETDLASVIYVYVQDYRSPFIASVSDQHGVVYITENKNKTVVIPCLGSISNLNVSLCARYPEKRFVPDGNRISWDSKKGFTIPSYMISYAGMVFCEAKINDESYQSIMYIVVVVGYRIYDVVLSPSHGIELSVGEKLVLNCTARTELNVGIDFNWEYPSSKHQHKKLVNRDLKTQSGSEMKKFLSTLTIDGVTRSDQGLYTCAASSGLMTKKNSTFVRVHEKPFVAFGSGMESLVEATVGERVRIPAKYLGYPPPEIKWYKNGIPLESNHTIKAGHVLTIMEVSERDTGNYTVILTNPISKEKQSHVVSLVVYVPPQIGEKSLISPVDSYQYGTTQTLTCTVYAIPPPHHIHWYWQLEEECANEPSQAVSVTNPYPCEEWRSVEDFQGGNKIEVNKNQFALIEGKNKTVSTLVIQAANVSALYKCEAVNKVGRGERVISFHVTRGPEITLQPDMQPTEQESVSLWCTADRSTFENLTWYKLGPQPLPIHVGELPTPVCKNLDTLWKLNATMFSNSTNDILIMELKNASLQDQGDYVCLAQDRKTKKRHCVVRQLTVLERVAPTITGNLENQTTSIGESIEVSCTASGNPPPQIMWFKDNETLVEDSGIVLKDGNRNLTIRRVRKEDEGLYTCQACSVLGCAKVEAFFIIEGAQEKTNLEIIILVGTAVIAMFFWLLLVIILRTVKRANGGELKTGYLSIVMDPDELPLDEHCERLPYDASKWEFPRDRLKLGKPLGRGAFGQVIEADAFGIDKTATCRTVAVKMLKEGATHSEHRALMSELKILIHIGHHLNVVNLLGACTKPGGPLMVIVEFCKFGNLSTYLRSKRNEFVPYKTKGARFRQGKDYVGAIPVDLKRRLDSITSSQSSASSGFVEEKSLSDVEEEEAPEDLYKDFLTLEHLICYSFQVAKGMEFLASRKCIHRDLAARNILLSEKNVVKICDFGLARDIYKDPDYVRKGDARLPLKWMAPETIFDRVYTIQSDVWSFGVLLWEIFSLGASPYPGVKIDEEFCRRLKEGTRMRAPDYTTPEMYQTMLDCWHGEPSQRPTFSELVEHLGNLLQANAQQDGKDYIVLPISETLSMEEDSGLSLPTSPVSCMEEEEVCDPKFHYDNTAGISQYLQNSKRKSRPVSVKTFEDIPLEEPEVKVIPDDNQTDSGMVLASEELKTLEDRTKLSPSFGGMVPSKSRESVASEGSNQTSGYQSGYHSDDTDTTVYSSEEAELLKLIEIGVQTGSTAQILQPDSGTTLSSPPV
In short: (§1)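 20000 cells/well, RPMI-1640 + 10% FBS + 2 mM L-Gln; compound 24 h, 37° C/5% CO2; Alamar Blue 4 h; RFU ex540/em590.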

[3] = tested on: Ba/F3-FGFR1-transfected cells; assay: Ba/F3-FGFR1 (plus IL3) cellular proliferation assay, counterscreen with 10 ng/ml murine IL3; type: cell-based; conditions: plus IL3 (10 ng/ml murine IL3, counterscreen); read-out: BAF3-FGFR1 (PLUS IL3) pIC50 (converted)
In short: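 Ba/F3-FGFR1 cells (20000/well) in RPMI-1640 with 10% FBS exposed to compound for 24 h at 37° C., 5% CO2, then Alamar Blue (resazurin) added for 4 h; fluorescence read at ex 540/em 590 nm. Counterscreen run identically with 10 ng/ml murine IL3.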

FGFR1 (h) = FGFR1 (h) (Homo sapiens, UniProt P11362); assay: FGFR1 (enzymatic assay), TR-FRET; type: biochemical; conditions: read-out: FGFR 1 pIC50 (converted)
Chain of FGFR1 (h) (P11362 22-822): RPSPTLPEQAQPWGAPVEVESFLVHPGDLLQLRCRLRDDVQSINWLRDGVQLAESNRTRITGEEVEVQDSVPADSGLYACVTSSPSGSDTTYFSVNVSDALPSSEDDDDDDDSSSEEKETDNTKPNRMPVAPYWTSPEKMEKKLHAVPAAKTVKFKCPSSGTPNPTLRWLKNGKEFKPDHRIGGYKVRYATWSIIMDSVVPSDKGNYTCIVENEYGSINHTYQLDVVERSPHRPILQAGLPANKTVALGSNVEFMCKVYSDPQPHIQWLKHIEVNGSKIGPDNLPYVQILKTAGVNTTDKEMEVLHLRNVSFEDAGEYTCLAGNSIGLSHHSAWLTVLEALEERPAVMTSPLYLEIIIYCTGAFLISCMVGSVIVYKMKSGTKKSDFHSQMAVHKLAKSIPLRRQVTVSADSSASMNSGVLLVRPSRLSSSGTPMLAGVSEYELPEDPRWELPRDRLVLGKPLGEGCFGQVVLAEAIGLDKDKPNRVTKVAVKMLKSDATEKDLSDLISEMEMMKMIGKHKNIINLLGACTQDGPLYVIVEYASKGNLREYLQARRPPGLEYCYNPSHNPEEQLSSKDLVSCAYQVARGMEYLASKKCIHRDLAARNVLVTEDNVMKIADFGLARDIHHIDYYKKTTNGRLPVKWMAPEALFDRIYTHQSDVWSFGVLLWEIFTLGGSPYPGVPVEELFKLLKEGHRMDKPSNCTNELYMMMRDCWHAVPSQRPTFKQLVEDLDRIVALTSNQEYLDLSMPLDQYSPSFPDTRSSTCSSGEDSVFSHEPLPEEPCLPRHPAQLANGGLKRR

FGFR2 (h) = FGFR2 (h) (Homo sapiens, UniProt P21802); assay: FGFR2 (enzymatic assay), TR-FRET; type: biochemical; conditions: enzymatic assay; read-out: FGFR 2 pIC50 (converted)
Chain of FGFR2 (h) (P21802 22-821): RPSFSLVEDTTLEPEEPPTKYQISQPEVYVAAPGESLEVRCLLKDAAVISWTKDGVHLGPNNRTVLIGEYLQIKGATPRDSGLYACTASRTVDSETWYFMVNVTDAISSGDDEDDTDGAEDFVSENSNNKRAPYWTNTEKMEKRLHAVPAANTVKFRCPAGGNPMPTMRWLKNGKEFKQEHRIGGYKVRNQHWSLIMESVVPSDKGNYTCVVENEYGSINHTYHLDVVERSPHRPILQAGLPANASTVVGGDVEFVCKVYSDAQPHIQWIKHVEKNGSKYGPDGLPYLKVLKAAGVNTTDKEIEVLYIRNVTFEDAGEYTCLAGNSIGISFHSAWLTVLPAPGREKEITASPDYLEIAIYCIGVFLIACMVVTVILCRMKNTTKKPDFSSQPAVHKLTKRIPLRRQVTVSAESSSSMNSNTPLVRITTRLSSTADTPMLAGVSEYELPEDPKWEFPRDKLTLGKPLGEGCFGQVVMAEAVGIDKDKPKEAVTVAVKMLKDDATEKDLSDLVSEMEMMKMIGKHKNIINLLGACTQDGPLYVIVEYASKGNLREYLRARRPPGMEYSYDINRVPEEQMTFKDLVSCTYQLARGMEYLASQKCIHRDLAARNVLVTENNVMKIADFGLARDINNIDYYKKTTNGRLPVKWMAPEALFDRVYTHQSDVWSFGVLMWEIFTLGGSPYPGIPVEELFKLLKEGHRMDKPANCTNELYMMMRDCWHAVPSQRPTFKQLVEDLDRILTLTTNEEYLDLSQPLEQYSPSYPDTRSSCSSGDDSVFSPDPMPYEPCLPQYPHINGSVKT
In short: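 Human FGFR2 (150 ng/ml) was incubated with 500 nM Btn-Flt3 substrate and 0.4 μM ATP in 50 mM HEPES pH 7.5, 6 mM MnCl2, 1 mM DTT, 0.1 mM Na3VO4, 0.01% Triton-X-100. Compound was present at 1% DMSO final.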

[4] = tested on: Ba/F3-FGFR3-transfected cells; assay: Ba/F3-FGFR3 (plus IL3) cellular proliferation assay, counterscreen with 10 ng/ml murine IL3; type: cell-based; conditions: plus IL3 (10 ng/ml murine IL3, counterscreen); read-out: BAF3-FGFR3 (PLUS IL3) pIC50 (converted)
In short: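 FGFR3-Ba/F3, 20000 cells/well, RPMI-1640 + 10% FBS, no phenol red; cpd in DMSO; 24 h, 37° C/5% CO2. Alamar Blue 4 h, RFU ex540/em590. Counterscreen: + murine IL3 10 ng/ml.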

[5] = tested on: Ba/F3-KDR-transfected cells; assay: Ba/F3-KDR (plus IL3) cellular proliferation assay, counterscreen with 10 ng/ml murine IL3; type: cell-based; conditions: plus IL3 (10 ng/ml murine IL3, counterscreen); read-out: BAF3-KDR (PLUS IL3) pIC50 (converted)
In short: as §1

FGFR4 (h) = FGFR4 (h) (Homo sapiens, UniProt P22455); assay: FGFR4 (enzymatic assay), TR-FRET; type: biochemical; conditions: FGFR 4 pIC50, enzymatic assay
Chain of FGFR4 (h) (P22455 22-802): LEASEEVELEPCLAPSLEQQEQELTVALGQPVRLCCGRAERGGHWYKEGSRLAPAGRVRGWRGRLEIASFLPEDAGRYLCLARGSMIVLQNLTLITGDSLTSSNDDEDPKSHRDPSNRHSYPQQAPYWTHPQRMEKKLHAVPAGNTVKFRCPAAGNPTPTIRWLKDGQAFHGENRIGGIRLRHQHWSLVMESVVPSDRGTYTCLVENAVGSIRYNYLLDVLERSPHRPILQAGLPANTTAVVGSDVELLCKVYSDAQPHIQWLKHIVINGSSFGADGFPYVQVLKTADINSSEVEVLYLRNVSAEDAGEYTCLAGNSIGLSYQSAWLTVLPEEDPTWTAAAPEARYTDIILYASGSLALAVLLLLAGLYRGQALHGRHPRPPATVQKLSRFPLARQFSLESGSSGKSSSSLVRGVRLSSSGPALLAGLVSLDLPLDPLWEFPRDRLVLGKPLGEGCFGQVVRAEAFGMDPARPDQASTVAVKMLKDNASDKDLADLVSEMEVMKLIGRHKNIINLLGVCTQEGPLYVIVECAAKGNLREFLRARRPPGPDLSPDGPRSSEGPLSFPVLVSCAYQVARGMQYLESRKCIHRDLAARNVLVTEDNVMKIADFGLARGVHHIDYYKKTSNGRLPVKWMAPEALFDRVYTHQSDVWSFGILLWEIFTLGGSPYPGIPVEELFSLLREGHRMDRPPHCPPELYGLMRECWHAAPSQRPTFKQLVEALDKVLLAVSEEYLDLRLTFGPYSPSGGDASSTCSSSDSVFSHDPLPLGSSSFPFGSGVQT

[6] = biological target: Ba/F3-FGFR4-transfected cells (Homo sapiens, UniProt P22455); assay: Ba/F3-FGFR4 cellular proliferation assay, Alamar Blue; type: cell-based
Chain of Ba/F3-FGFR4-transfected cells (P22455 whole entry, change not shown): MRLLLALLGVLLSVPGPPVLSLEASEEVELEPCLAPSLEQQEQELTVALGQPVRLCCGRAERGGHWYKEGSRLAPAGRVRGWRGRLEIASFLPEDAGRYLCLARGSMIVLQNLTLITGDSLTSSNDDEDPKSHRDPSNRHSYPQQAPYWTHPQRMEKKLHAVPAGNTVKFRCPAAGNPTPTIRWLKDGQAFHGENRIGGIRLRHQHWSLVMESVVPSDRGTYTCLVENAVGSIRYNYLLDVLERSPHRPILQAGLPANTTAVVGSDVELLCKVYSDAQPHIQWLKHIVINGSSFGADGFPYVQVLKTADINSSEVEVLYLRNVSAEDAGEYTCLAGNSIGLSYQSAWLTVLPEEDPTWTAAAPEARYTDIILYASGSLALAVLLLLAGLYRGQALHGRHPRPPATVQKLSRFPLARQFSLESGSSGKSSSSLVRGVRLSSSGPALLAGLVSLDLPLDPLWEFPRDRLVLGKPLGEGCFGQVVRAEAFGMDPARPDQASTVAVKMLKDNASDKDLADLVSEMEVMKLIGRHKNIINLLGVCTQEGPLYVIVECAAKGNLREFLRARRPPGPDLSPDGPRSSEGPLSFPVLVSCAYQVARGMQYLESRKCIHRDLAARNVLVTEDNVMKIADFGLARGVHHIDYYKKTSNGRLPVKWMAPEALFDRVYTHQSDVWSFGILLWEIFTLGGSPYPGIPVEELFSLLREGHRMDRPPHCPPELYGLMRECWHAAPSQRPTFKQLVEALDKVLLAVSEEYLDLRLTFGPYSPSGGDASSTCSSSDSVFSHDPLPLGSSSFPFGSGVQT
In short: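 20000 cells/well, RPMI-1640 (phenol red free) + 10% FBS + 2 mM L-Gln; cpd from DMSO; 24 h, 37° C, 5% CO2; Alamar Blue 4 h; RFU ex 540/em 590 nm.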

Row | Compound | BAF3-FGFR1 (MIN IL3) pIC50 [1] | BAF3-KDR (MIN IL3) pIC50 [2] | IC50 [3] [nM] | IC50 (FGFR1 (h)) [nM] | IC50 (FGFR2 (h)) [nM] | IC50 [4] [nM] | IC50 [5] [nM] | IC50 (FGFR4 (h)) [nM] | BAF3-FGFR4 pIC50 [6]
1 | COc1cc(OC)c(F)c(N(CCN(C2COC2)C2COC2)c2ccc3ncc(-c4cnn(C)c4)nc3n2)c1 [Compound 222] | 7.12 | 5.68 | > 10000 | 2.24 | 5.25 | > 10000 | > 10000 | 15.5 | 6.55
2 | COc1cc(OC)c(F)c(N(Cc2nc(Br)c[nH]2)c2ccc3ncc(-c4cnn(C)c4)nc3n2)c1 [Compound 238] | ~8.32 | 6.46 | > 10000 | 0.479 | 2.14 | > 10000 | > 10000 | 1.12 | 8.06
3 | COc1cc(OC)c(F)c(N(CCNC(C)=O)c2ccc3ncc(-c4cnn(C)c4)nc3n2)c1 [Compound 242] | 7.35 | 5.49 | > 10000 | 1.17 | 2.95 | > 10000 | > 10000 | 2.24 | 7.22
4 | COc1cc(/N=c2\ccc3ncc(-c4cnn(C)c4)nc3n2CCN2CCOCC2)c(F)c(OC)c1 [Compound 148] | 7.58 | 6.26 | > 10000 | 1.7 | 1.91 | > 10000 | > 10000 | 1.62 | 7.21
5 | COc1cc(OC)c(F)c(N(CC2CCC(=O)N2C)c2ccc3ncc(-c4cnn(C)c4)nc3n2)c1 (stereo not drawn) [Compound 159] | 6.65 | 5.17 | > 10000 | 8.51 | 6.61 | > 10000 | > 10000 | 20.4 | 6.20
6 | COc1cc(OC)cc(N(Cc2ncn(CCO)n2)c2ccc3ncc(-c4cnn(C)c4)nc3n2)c1 [Compound 205] | 6.31 | 5.45 | > 10000 | 3.89 | 5.13 | > 10000 | > 10000 | 47.9 | 5.62
7 | COc1cc(OC)c(F)c(N(Cc2ncc[nH]2)c2ccc3ncc(-c4cn[nH]c4)nc3n2)c1 [Compound 190] | 8.19 | 6.46 | > 10000 | 0.617 | 1.29 | > 10000 | > 10000 | 1.12 | 8.08
8 | COc1cc(OC)c(F)c(N(CCN2CCCC2=O)c2ccc3ncc(-c4cnn(C)c4)nc3n2)c1 [Compound 157] | 6.17 | 5.30 | > 10000 | 10.5 | 6.31 | > 10000 | > 10000 | 26.3 | 6.08
9 | COc1cc(/N=c2\ccc3ncc(-c4cnn(C)c4)nc3n2CC2CCCOC2)cc(OC)c1 (stereo not drawn) [Compound 165] | 7.38 | 6.30 | > 10000 | 1.15 | 2.4 | > 10000 | > 10000 | 2.04 | 7.13
10 | COc1cc(OC)c(F)c(N(CC(C)(C)O)c2ccc3ncc(-c4cnn(CC(C)(C)O)c4)nc3n2)c1 (single isomer, unassigned) [Compound 208] | 6.84 | 5.57 | > 10000 | 3.63 | 5.25 | > 10000 | > 10000 | 18.6 | 6.16
11 | COc1cc(OC)c(F)c(N(CCN(C2COC2)C2COC2)c2ccc3ncc(-c4cnn(C)c4)nc3n2)c1F (single isomer, unassigned) [Compound 163] | 7.82 | 6.21 | > 10000 | 0.977 | 1.91 | > 10000 | > 10000 | 3.24 | 7.32
12 | COc1cc(OC)c(F)c(N(CC2CCC(=O)N2CCO)c2ccc3ncc(-c4cnn(C)c4)nc3n2)c1 (single isomer, unassigned) [Compound 218] | 7.51 | 5.64 | > 10000 | 3.24 | 5.5 | > 10000 | > 10000 | 3.89 | 6.99
13 | COc1cc(OC)c(F)c(N(CC2CCC(=O)N2CCO)c2ccc3ncc(-c4cnn(C)c4)nc3n2)c1 (stereo not drawn) [Compound 194] | 6.30 | 5.18 | > 10000 | 11.2 | 12 | > 10000 | > 10000 | 44.7 | 5.50
14 | COc1cc(OC)cc(N(Cc2nn[nH]n2)c2ccc3ncc(-c4cnn(C)c4)nc3n2)c1 [Compound 197] | <5 | <5 | > 10000 | 22.4 | 11.2 | > 10000 | > 10000 | 34.7 | <5
15 | COc1cc(OC)c(F)c(N(Cc2ncc[nH]2)c2ccc3ncc(-c4cnn(C(CO)CCl)c4)nc3n2)c1 (stereo not drawn) [Compound 209] | 8.71 | 6.57 | > 10000 | 0.776 | 2.4 | > 10000 | > 10000 | 1.12 | 7.92

— patent US9309242B2, “Substituted pyrido[2,3-b]pyrazines as FGFR kinase inhibitors” (priority 2011, dated 2016)
